Measurements reported in PubChem BioAssay (NCI).
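Compound exposure: 48 hours, 5 concentrations, 96-well plates. TGI: total growth inhibition.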

Assays:
Assay in all cases: NCI anticancer screen, dose series, 48 h
[1] = test system: HCC-2998 colon
[2] = test system: HCT-116 colon
[3] = test system: M14 melanoma
[4] = test system: DU-145 prostate
[5] = test system: RPMI-8226 leukemia
[6] = test system: CAKI-1 renal
[7] = test system: SK-MEL-5 melanoma
[8] = test system: NCI-H226 lung
[9] = test system: HOP-62 NSCLC
[10] = test system: HT29 colon
[11] = test system: SNB-19 CNS
[12] = test system: ACHN renal
[13] = test system: EKVX NSCLC
[14] = test system: OVCAR-8 ovarian
[15] = test system: NCI/ADR-RES ovarian
[16] = test system: UO-31 renal
[17] = test system: UACC-257 melanoma
[18] = test system: PC-3 prostate
[19] = test system: SF-295 CNS

| Compound | TGI [1] [µM] | TGI [2] [µM] | TGI [3] [µM] | TGI [4] [µM] | TGI [5] [µM] | TGI [6] [µM] | TGI [7] [µM] | TGI [8] [µM] | TGI [9] [µM] | TGI [10] [µM] | TGI [11] [µM] | TGI [12] [µM] | TGI [13] [µM] | TGI [14] [µM] | TGI [15] [µM] | TGI [16] [µM] | TGI [17] [µM] | TGI [18] [µM] | TGI [19] [µM] |
| --- | --- | --- | --- | --- | --- | --- | --- | --- | --- | --- | --- | --- | --- | --- | --- | --- | --- | --- | --- |
| Cc1nnc(N2C(=O)C(=Cc3ccc(Cl)cc3)N=C2c2ccc(Cl)cc2)nc1/C=C\c1ccc(N(C)C)cc1 | > 100 | > 100 | > 100 | > 100 | > 100 | > 100 | > 100 | > 100 | > 100 | > 100 | > 100 | > 100 | > 100 | > 100 | > 100 | > 100 | > 100 | > 100 | > 100 |
| CCCCCCCCCCCCCCCCCCNc1ccn(C2OC(COP(=O)(O)OCC(COP(=O)(O)OCC3OC(n4cc(C)c(=O)[nH]c4=O)CC3N=[N+]=[N-])OCCCCCCCCCCCCCCCCCC)C(O)C2O)c(=O)n1 (centres undefined) | > 100 | > 100 | > 100 | > 100 | > 100 | > 100 | > 100 | > 100 | > 100 | > 100 | 50.5 | > 100 | > 100 | > 100 | > 100 | 33.1 | > 100 | > 100 | > 100 |
| CC(/C=C/C=C\C=C\C=C(/C)C(=O)NC(C)CO)=C\C(C)C(O)/C(C)=C/C(C)CCc1ccccc1 (centres undefined) | 26.7 | 19.4 | 23 | > 100 | > 78.6 | 54.1 | 15.5 | 26.5 | 37.5 | 25.2 | 35.8 | 21.9 | > 80.6 | 25 | 93 | 27.3 | 12.3 | 25.2 | 13.4 |
| Nc1nc(N)c2c(CCc3ccc(C(=O)N[C@@H](CCC(=O)O)C(=O)O)cc3)ccnc2n1 | 0.0952 | > 100 | > 100 | > 100 | > 100 | > 100 | > 100 | > 100 | > 100 | > 100 | > 100 | > 100 | > 100 | > 100 | > 100 | > 100 | > 100 | > 100 | > 100 |
| COc1c(C(=O)/C(=N/Nc2cccc(Cl)c2)C(C)=O)c(O)c(OC)c2occc12 | > 100 | > 100 | > 100 | > 100 | > 100 | > 100 | > 100 | > 100 | > 100 | > 100 | > 100 | > 100 | > 100 | > 100 | > 100 | > 100 | > 100 | > 100 | > 100 |
| Cc1ccc2c(=O)cc(-c3cc4ccccc4s3)[nH]c2n1 | > 100 | > 100 | > 100 | > 100 | > 100 | > 100 | > 100 | 98.6 | > 100 | > 100 | > 100 | > 100 | > 100 | > 100 | > 100 | 0.17 | > 100 | > 100 | > 100 |
| O=C(CC(C(=O)c1cccs1)c1ccsc1)c1ccc(Cl)cc1 (centres undefined) | > 100 | > 100 | > 100 | > 100 | > 100 | > 100 | > 100 | > 100 | > 100 | > 100 | > 100 | > 100 | > 100 | > 100 | > 100 | > 100 | > 100 | > 100 | > 100 |
| CC[C@]1(Cc2ccc(OC)c(OC)c2)C=[N+]([O-])O[C@H](OC2CCCCC2c2ccccc2)[C@@H]1OC(C)=O (some centres undefined) | > 100 | > 100 | > 100 | > 100 | 69.7 | 56.8 | > 100 | > 100 | > 100 | > 100 | > 100 | > 100 | > 100 | > 100 | > 100 | > 100 | > 100 | > 100 | > 100 |
| C[C@]12CCC(=O)C=C1CC[C@@H]1[C@@H]2CC[C@]2(C)C(=O)/C(=C/c3ccncc3)C[C@@H]12 | 30.9 | 23 | 29.4 | 29.2 | 35.2 | 43.7 | 22.1 | 34.6 | 32.5 | 32.7 | 26.8 | 30.5 | 35.6 | 90.2 | > 100 | 26.6 | 28.6 | 25.6 | 36.1 |
| Cc1ccc(N/N=C/C2=CC(C)(C)C(C#N)(C#N)C(O)=C2C#N)cc1 | > 100 | > 100 | > 100 | > 100 | 93.7 | 69.5 | > 100 | > 100 | > 100 | > 100 | > 100 | > 100 | > 100 | > 100 | > 100 | > 100 | > 100 | 58.7 | > 100 |
| COc1cc2c(NCCN(C)C)nc3c4cc5c(cc4ccc3c2cc1OC)OCO5 | 8.93 | 6.77 | 7.4 | 7.32 | 17.2 | 5.88 | 5.87 | 8.18 | 7.09 | 6.56 | 7.15 | 4.01 | 8.25 | 6.97 | 8.31 | 7.05 | 7.98 | 8.7 | 5.7 |
| c1cc2c(cc1NC1=NCCO1)CCCC2 | 9.8 | 16 | 12.2 | 24.6 | 12 | > 88.1 | 9.17 | 11.4 | 10.9 | 7.28 | > 84.2 | 72.9 | 47 | 12.5 | 8.84 | 51.8 | > 28.1 | 15.5 | 25.6 |
| CC(=O)O[C@H]1C[C@H]2[C@@H]([C@H](OC(C)=O)C[C@@H]3CC4(CC[C@@]32C)OOC2(CCCCC2)OO4)[C@@H]2CC[C@H]([C@H](C)CCC(N)=O)[C@@]12C | 7.41 | 11.2 | 9.67 | 3.52 | 2.7 | 2.14 | 5.24 | 6.8 | 2.11 | 14.3 | 20.1 | 3.12 | 3.23 | 9.87 | 4.95 | 0.193 | 19.9 | 4.15 | 9.66 |
| CN(C)CCn1c2c(c3ccccc31)CCc1ccccc1-2 | 16.7 | 26.3 | 26.3 | 29.8 | 28.3 | 29.4 | 21.1 | 26 | 29.1 | 21.1 | 33.5 | 29.9 | 32.4 | 29.5 | 29.9 | 26.8 | 27.7 | 23.5 | 30.6 |
| COc1cc(/C=C2/CCCc3ccccc3C2=O)cc(OC)c1OC | > 74 | > 49.9 | > 67.4 | > 58.3 | > 78.9 | > 59.5 | 13.6 | > 79.8 | > 58.9 | > 100 | > 100 | > 100 | > 92.2 | > 69.8 | > 100 | > 60.2 | > 56.1 | > 59.3 | > 57.6 |
| CSc1ccc(/C=C/C(=O)c2nc3ccccc3[nH]2)cc1 | 23.7 | 31.4 | 36.8 | 13.2 | 13.4 | 6.19 | 57.8 | 56.9 | 82.1 | 46.2 | 49.4 | 43.2 | 54.4 | > 100 | 64.1 | 19.9 | 67.1 | 68.6 | > 100 |
